One data set can be described thus: Aqueous solubility. It counts as physicochemical. Conditions: for solubility in water: in words.
A further data set has as its system 12-LOX. Conditions: in words; cited from earlier work.
A short description of data set [1]: Oral bioavailability of Compound 1 suspension in mice. Conditions: mouse, in vivo, suspension in 0.5% methylcellulose. The source says: While this vehicle is sufficient for short term efficacy studies, the inventors needed a more robust and clinically relevant formulation for the longer dosing regimens required for mouse efficacy models.
Data set [2] can be described thus: Rat PK of Compound 1, IV and oral solution (Table 2). It counts as in vivo, rats. The source says: The intravenous formulation uses cyclodextrin (CD) to increase solubility. […] The inventors explored a new approach to oral formulation without guidance from the art including lipid solubility screening in various non-aqueous vehicles, self micro-emulsifying systems with oils, surfactants, and co-surfactants, amorphous solid dispersions via hot melt and spray drying, micronization, and in silico screen of supercritical fluid nanoparticle engineering. […] The pharmaceutical acceptable carrier can be a polymer.

The nature of data set [3]: Rat PK of Compound 1, IV and oral suspension (Table 1). Details: species or system rats. As to conditions: in vivo; for bioavailability: po, rats. The text has this:
The intravenous formulation uses cyclodextrin (CD) to increase solubility. However, a drug loading of <10% is not suitable for oral formulation. The inventors explored a new approach to oral formulation without guidance from the art including lipid solubility screening in various non-aqueous vehicles, self micro-emulsifying systems with oils, surfactants, and co-surfactants, amorphous solid dispersions via hot melt and spray drying, micronization, and in silico screen of supercritical fluid nanoparticle engineering. […] The pharmaceutical acceptable carrier can be a polymer.

Data set [4] can be described thus: Solubility of Compound 1 in organic solvents relevant to spray drying (Table 3). Type of data set: physicochemical. As to conditions: for solubility: organic solvent or mixture, read-out: Solubility Concentration. The procedure:
THF was the most suitable solvent, and could be combined with other solvents such as acetone, ethanol and water to enable dissolution of the drug, polymer and additives in the formulation. Furthermore, given the anticipated dose of the product, maximizing the drug loading in the amorphous dispersion was essential.
Solubility in organic solvents relevant to spray draying were conducted ([…]), showing that THF with EtOH in water was preferred (85/10/5).

≈ marks a conversion by molar mass, not a printed value. Like-named read-outs stand apart in the source and are kept apart here. Bounds are passed on as bounds.

`COc1cccc(CNc2ccc(S(=O)(=O)Nc3cccc(C(C)C)c3)cc2)c1O` [Compound 3, 4-((2-hydroxy-3-methoxybenzyl)amino)-N-(3-isopropylphenyl)benzenesulfonamide]: the solubility in water entry in “Aqueous solubility” is “poor solubility in water”. Moreover, in the data set with 12-LOX, the 12-LOX inhibitor selectivity result is given as “selective” and the 12-LOX inhibitory potency entry is reported as “highly potent”.
Take `COc1cccc(CNc2ccc(S(=O)(=O)Nc3nc4ccccc4s3)cc2)c1O` [Compound 1, N-(benzo[d]thiazol-2-yl)-4-((2-hydroxy-3-methoxybenzyl)amino)benzenesulfonamide]: the bioavailability in data set [1] was below 5%; in data set [2] (in vivo, po, 30 mg/kg, PO solution, 30 mg/Kg, read-out: F (bioavailability, fraction absorbed)), 3%; in data set [3] (suspension dosing, read-out: Bioavailability), below 0.5%; in data set [3] (suspension in 0.5% methylcellulose, read-out: oral bioavailability) it was below 5%. In addition, the “C0 or Cmax” value in data set [2] (IV, 3 mg/Kg, C0 extrapolated to T = 0 h) is 63.725 µg/mL; in data set [2] (PO solution, 30 mg/Kg), 6.61 µg/mL. The AUC(0-t) in data set [2] (in vivo, IV, 3 mg/Kg) is 50.7 µg·h/mL; in data set [2] (in vivo, PO solution, 30 mg/Kg), 15.2 µg·h/mL; in data set [3] (IV, 3 mg/kg), 43.6 µg·h/mL; in data set [3] (IV, 10 mg/kg), 100 µg·h/mL; in data set [3] (IV, 30 mg/kg), 213 µg·h/mL; in data set [3] (oral suspension, 3 mg/kg), 0.203 µg·h/mL. Also, the AUC(0-t) in data set [3] (oral suspension, 10 mg/kg) was 0.399 µg·h/mL; in data set [3] (oral suspension, 30 mg/kg), 0.737 µg·h/mL. Moreover, the half-life in data set [2] (in vivo, IV, 3 mg/Kg) was 2.59 h; in data set [2] (in vivo, PO solution, 30 mg/Kg), 2.69 h; in data set [3] (IV, 3 mg/kg) it was 2.58 h; in data set [3] (IV, 10 mg/kg), 2.98 h; in data set [3] (IV, 30 mg/kg), 2.56 h; in data set [3] (oral suspension, 3 mg/kg), 1.82 h. For the same compound, the half-life in data set [3] (oral suspension, 10 mg/kg) was 3.41 h; in data set [3] (oral suspension, 30 mg/kg), 2.46 h. Also, in data set [2] (in vivo, IV, 3 mg/Kg, read-out: Cl_obs (observed clearance)), the clearance came to 0.0592 L/h/kg. For the same compound, the Vd in data set [2] (in vivo, IV, 3 mg/Kg, read-out: Vss_obs) amounted to 0.101 L/kg. Further, the solubility in water entry in the data set “Aqueous solubility” is recorded as “poor solubility in water”. Further, the solubility enhancement entry in the data set “Aqueous solubility” (phosphate buffer or simulated intestinal fluid) was “greatly enhanced”. Besides, the AUC(0-inf) stood at 43.6 µg·h/mL in data set [3] (IV, 3 mg/kg); 100 µg·h/mL in data set [3] (IV, 10 mg/kg); 214 µg·h/mL in data set [3] (IV, 30 mg/kg); 0.237 µg·h/mL in data set [3] (oral suspension, 3 mg/kg); 0.478 µg·h/mL in data set [3] (oral suspension, 10 mg/kg); 0.768 µg·h/mL in data set [3] (oral suspension, 30 mg/kg). The Cmax in data set [3] (IV, 3 mg/kg) turned out to be 49.6 µg/mL; in data set [3] (IV, 10 mg/kg) it was 91.2 µg/mL; in data set [3] (IV, 30 mg/kg), 180 µg/mL; in data set [3] (oral suspension, 3 mg/kg), 0.03 µg/mL; in data set [3] (oral suspension, 10 mg/kg) it was 0.0713 µg/mL; in data set [3] (oral suspension, 30 mg/kg), 0.142 µg/mL. In addition, the Tmax came out at 0.083 h in data set [3] (IV, 3 mg/kg); 0.083 h in data set [3] (IV, 10 mg/kg); 0.083 h in data set [3] (IV, 30 mg/kg); 4 h in data set [3] (oral suspension, 3 mg/kg); 2.67 h in data set [3] (oral suspension, 10 mg/kg); 2.67 h in data set [3] (oral suspension, 30 mg/kg). The Soluble result is given as “Yes” in data set [4] (50:45:5 Tetrahydrofuran:Acetone:Water); “No” in data set [4] (50:50 Acetone:Methanol); “No” in data set [4] (50:50 Methylene Chloride:Methanol); “Yes” in data set [4] (85:10:5 Tetrahydrofuran:Ethanol:Water); “Yes” in data set [4] (95:5 Tetrahydrofuran:Water). Moreover, the solubility in data set [4] (50:45:5 tetrahydrofuran:acetone:water) is 10 mg/mL (≈ 22.6 mM); in data set [4] (50:50 acetone:methanol), below 2.5 mg/mL; in data set [4] (50:50 methylene chloride:methanol) it was below 2.5 mg/mL; in data set [4] (85:10:5 tetrahydrofuran:ethanol:water), 10 mg/mL (≈ 22.6 mM); in data set [4] (95:5 tetrahydrofuran:water), 10 mg/mL (≈ 22.6 mM). Further, the “solubilization by solvents utilized in the prior art” value in data set [4] (majority of solvents, in words) is “did not solubilize Compound 1 to an adequate level”. In the data set with 12-LOX, the 12-LOX inhibitory potency entry is reported as “highly potent”.
Regarding `COc1cccc(CNc2ccc(S(=O)(=O)Nc3nc4ccccc4o3)cc2)c1O` [Compound 2, N-(benzo[d]oxazol-2-yl)-4-((2-hydroxy-3-methoxybenzyl)amino)benzenesulfonamide], the solubility in water entry in “Aqueous solubility” is given as “poor solubility in water”. In the data set on 12-LOX, the 12-LOX inhibitor selectivity entry is “selective” and the 12-LOX inhibitory potency result is reported as “highly potent”.

Broadly, the bioavailability is the share of a dose that reaches the circulation, judged against a reference dose that is usually intravenous. Usually AUC(0-t) stands for exposure summed from dosing to a finite time, without extrapolation to infinity. One may read the half-life as the time needed for the level to fall by half in the phase considered. A high value points to slow decline. In general, AUC(0-inf) refers to the area under the concentration-time curve extrapolated to infinity. Usually Cmax stands for the peak of the concentration-time curve. The Tmax is the time at which the peak concentration occurs.
